Experimental data: patent publication US4822791A, “Pharmaceutical compositions of-2,2-1,1-[bis-2,2'-(3,1-benzoxazin-4-one)9 ethylenes” (priority 1984, dated 1989)
Where “and” joins values, the source holds several entries; their conditions need not be identical. Identical values can stand only once.

Assays:
hyaluronidase = target: T1, hyaluronidase (Bos taurus, UniProt Q2YDK3); test: Anti-hyaluronidase activity (modified Morgan-Elson method); assay type: biochemical; details: hyaluronidase 340NF unit/ml; activating agent Compound 48/80 or CaCl2; read-out: IC50
T1 sequence (Q2YDK3 36-553): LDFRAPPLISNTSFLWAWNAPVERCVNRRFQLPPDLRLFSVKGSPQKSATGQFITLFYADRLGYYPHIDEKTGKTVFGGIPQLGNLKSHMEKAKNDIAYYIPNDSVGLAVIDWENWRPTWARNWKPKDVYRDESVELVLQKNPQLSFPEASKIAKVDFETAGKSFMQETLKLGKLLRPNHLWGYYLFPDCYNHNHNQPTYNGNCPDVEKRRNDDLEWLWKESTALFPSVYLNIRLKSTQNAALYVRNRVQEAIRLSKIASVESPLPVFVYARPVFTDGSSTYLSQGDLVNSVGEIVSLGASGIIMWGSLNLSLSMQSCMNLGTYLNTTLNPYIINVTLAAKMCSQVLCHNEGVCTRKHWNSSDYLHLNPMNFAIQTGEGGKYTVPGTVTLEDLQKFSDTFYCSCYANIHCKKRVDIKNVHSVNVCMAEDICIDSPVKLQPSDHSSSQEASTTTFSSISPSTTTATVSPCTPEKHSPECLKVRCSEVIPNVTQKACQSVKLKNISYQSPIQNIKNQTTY

[1] = system: mast cell in abdominal cavity; test: Inhibition of histamine release from mast cell in abdominal cavity in rat (Test Example 6); assay type: cell-based
Experimental: Examination was made on the activity of inhibition of histamine release from mast cell by antigen-antibody reaction.
Swine ascaris extract solution was dinitrophenylated according to Aisen's method, dialysed, and lyophilized. The product was administered as antigen together with Bordetella Pertussis vaccine subcutaneously into the foot pad of rat. Eight days later, blood was taken to obtain antiserum. The PCA titer for this antiserum in rat was 32 to 64.
Heparin-containing PBS was injected intraperitoneally to rat which was sacrificed by exsanguination, after which the abdomen was well massaged to collect the injected PBS, which was purified by washing several times by centrifugation. The number of the mast cells contained in the solution was determined and adjusted to the designed concentration. As to method of sensitizing the cell, the above cell suspension (6 ml, 2×10^6 cells/ml) was treated with anti-DNP-Ascaris rat serum (PCA titer 32) (6 ml) and the mixture was incubated in the presence of hepain at 37° C. for 2 hours.
To the sensitized mast cell suspension the solution of the drug to be tested was added, and the mixture was preliminarily incubated at 37° C. for 12 minutes. After addition of the solution of antigen DNP-Ascaris (final concentration, 20 microgramms/ml), the mixture was further incubated for 20 minutes. After completion of the reaction, the solution was centrifuged (500 G, 10 min.) under a low temperature to obtain a supernatant solution. Histamine contained in the supernatant solution was subjected to fluorometry by crthophthalaldehyde method.

[2] = Acute toxicity LD50 in mice (Test Example 8); details: mouse, in vivo, one week, Probit method
Experimental: (§1) ddy-Strain mice (male) and Wistar strain rats were used to obtain LD50 values.
(§2) According to the ordinary procedure, suspension or solution of test sample was administered to the animals. From the number of the died animals until one week after the administration, LD50 values were obtained by Probit method.

[3] = Acute toxicity LD50 in rats (Test Example 8); details: rat, in vivo, po; one week; Probit method; read-out: LD50 value (mg/kg body weight) Rat p.o.
Experimental: as §1, §2

[4] = system: passive systemic anaphylaxis (PSA); test: Preventive activity against passive systemic anaphylaxis (PSA) in guinea pig; assay type: in vivo, Hartley strain female guinea pig
Experimental: Effect of the compound on prevention of death by passive systemic anaphylaxis was examined in guinea pig.
Normal Hartley strain female guinea pig (body weight, 240-260 g) was sensitized by intravenous administraticn of anti-ovalbumin rabbit serum. It was perorally administered with the compound 11 in the amount of 200 mg/kg. One hour later, it was intravenously administered with 2% physiological saline solution of antigen ovalbumin at the rate of 0.05 ml. Thereafter, the state was observed, and the time (seconds) until death was measured.

[5] = system: anaphylaxis reaction to inhalated antigen; test: Antigen inhalation test on passive sensitized guinea pig (experimental asthma model); assay type: in vivo; details: 200 mg/kg po
Experimental: The test compound and Tranilast were respectively suspended at the time of use in 5% gum arabic solution containing 0.1% Tween 80 at the rate of 40 mg/ml, and were perorally administered at the rate of 0.5 ml per 100 g body weight of the animal.
DSCG was dissolved at the time of use in physiological saline solultion for injection at the rate of 5.0 mg/ml, and was intravenously injected at the rate of 0.1 ml per 100 g body weight of the animal.
Anti-ovalbumin rabbit serum diluted with physiological saline solution for injection so as tc contain anti-ovalbumin rabbit antibody at the rate of 0.187 mg N/ml was intravenously administered to guinea pig at the rate of 0.1 ml per 100 g of body weight and it was passively sensitized.
Twenty-four hours later, the suspension of the compound prepared in (1) above was perorally or intravenously administered to the animal. The animal was put in the inhalation chamber one hour after the administration in case of the peroral administration and five minutes after the administration in case of the intravenous administration, and 2% physiological saline solution of antigen ovalbumin was inhaled by spraying. Over 10 minutes' period from the time immediately after the forced inhalation, the time until its fall attributed to anaphylaxis reaction was recorded, and the numbers of alive and dead animals after lapse of 10 minutes were also counted.

[6] = system: experimental ulcer model (Shay); test: Anti-ulcer activity in experimental ulcer model (Shay); assay type: in vivo, Wistar strain male rats
Method in brief: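 Wistar male rats, 8 weeks old, 5 per group, fasted 48 h, pylorus ligated under ether (Shay method); compound in 0.5% CMC/0.1% Tween 80 given id or ip, vehicle to controls. Stomach removed 8 h later; ulcers scored, gastric juice volume, acidity (alkali titration), pepsin (haemoglobin substrate) expressed as % inhibition versus control mean.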

SRS-A = test: Anti-SRS-A activity, contraction of guinea pig ileum by crude SRS-A solution; design: key to Anti-SRS-A activity (rate of inhibition against the contraction amount): % inhibition of SRS-A-induced ileum contraction
Experimental: A piece of lungs of guinea pig sensitized with ovalbumin was incubated with antigen ovalbumin at 37° C. for 20 minutes to obtain a supernatant solution, which was used as a crude SRS-A solution.
A piece of ileum of normal guinea pig was suspended in Magnus tube filled with Tyrode's solution and incubated with the solution of drug to be examined for a certain duration, and the contraction of the piece of ileum induced by adding the above crude SRS-A solution was determined on the basis of the contraction rate attributed to hystamine dihydrochloride 10^-6 M. The rate of inhibition against the contraction amount was taken as anti-SRS-A activity.

## O=C(Nc1ccccc1C(=O)O)C(=Cc1ccccc1)C(=O)Nc1ccccc1C(=O)O [Compound 11, 2,2'-[(1,3-dioxo-2-phenylmethylene-1,3-propanediyl)diimino]bisbenzoic acid]
hyaluronidase
  IC50: 22 µM
[1]; Rattus norvegicus, Mast cell, 20 min, 10^-3 M, DNP-Ascaris 20 microgramms/ml, read-out: Amount of histamine released from peritoneal mast cell (Control = 100)
  activity at 1000 µM: 13%
[1]; Rattus norvegicus, Mast cell, 20 min, 10^-4 M, DNP-Ascaris 20 microgramms/ml, read-out: Amount of histamine released from peritoneal mast cell (Control = 100)
  activity at 100 µM: 59%
[1]; Rattus norvegicus, Mast cell, 20 min, 10^-5 M, DNP-Ascaris 20 microgramms/ml, read-out: Amount of histamine released from peritoneal mast cell (Control = 100)
  activity at 10 µM: 51%
[1]; Rattus norvegicus, Mast cell, 20 min, 10^-6 M, DNP-Ascaris 20 microgramms/ml, read-out: Amount of histamine released from peritoneal mast cell (Control = 100)
  activity at 1 µM: 55%
[1]; even at the low concentration of 10^-6 M
  inhibition of release of histamine from the mast cell (in words): inhibiting release of histamine
[2]; iv, read-out: LD50 value (mg/kg body weight) Mouse i.v.
  LD50 at 168 h: 344 mg/kg
[2]; po, read-out: LD50 value (mg/kg body weight) Mouse p.o.
  LD50 at 168 h: > 10000 mg/kg
[3]
  LD50 at 168 h: > 10000 mg/kg
[4]; 200 mg/kg perorally, control group 294.9 seconds
  average living time: 441.7 s
[4]; 200 mg/kg po
  Extended rate (%): 49.8%
  anti-PSA activity (in words): statistically significant anti-PSA activity
[4]; 200 mg/kg po, N 10
  Ave. time to death Mean ± S.E.: 441.70 ± 21.5 s
  Required time (sec.) to death, single animals: 431 s and 548 s and 488 s and 475 s and 367 s and 492 s and 485 s and 352 s and 348 s
[5]
  Extended rate (%): 43.5%
  preventive effect on anaphylaxis reaction (in words): strong preventive effect
[5]; N 5
  Average time for falling Mean ± S.E.: 223.0 ± 15.7 s
[5]; N 5, observed 10 minutes, # shows death
  Required time (sec.) for falling and Number of death (#), single animals: 194 s and 227 s and 248 s and > 600 s
[6]; id 100 mg/kg
  Inhibition % Gastric Acidity: 4.7%
  Inhibition % secretion amount of gastric juice: 0%
  Inhibition % total pepsin titer: 0%
[6]; id 200 mg/kg
  Inhibition % Gastric Acidity: 16.5%
  Inhibition % secretion amount of gastric juice: 20.1%
  Inhibition % total pepsin titer: 9.1%
SRS-A; 10^-3 M
  Anti-SRS-A activity (rate of inhibition against the contraction amount): 31.8
SRS-A; 10^-4 M
  Anti-SRS-A activity (rate of inhibition against the contraction amount): 0
SRS-A; 10^-5 M
  Anti-SRS-A activity (rate of inhibition against the contraction amount): 0
SRS-A; 10^-6 M
  Anti-SRS-A activity (rate of inhibition against the contraction amount): 0
SRS-A; compound 11 at a concentration of 10^-3 M
  anti-SRS-A activity (in words): moderate anti-SRS-A activity
